One series deals with CT26 cells. In words: Rechallenge of cured (tumor-free) mice with CT26 cells. The settings on record: mice cured by ER-886046 + radiation. The class given is in vivo. The text has this: (§1) FIG. 4A to FIG. 4C. Long lasting anti-tumor effect with a memory immune response by ER-886046/radiation treatment. Panel shown in FIG. 4A) Tumor growth in the cured mice by ER-886046 and radiation combination treatment or in the naïve Ba1B/c mice that received injection of CT26 cells. Panel shown in FIG. 4B) Tumor growth of secondarily challenged CT-26 tumors in the cured mice or in naïve mice. Panel shown in FIG. 4C) Growth of 4T1 tumors in cured mice or in naïve mice. N=9-10. Note the complete rejection of challenged CT-26 tumor and reduced growth of challenged 4T1 tumors in the combination cured mice. ***, p<0.001. 2 tailed student t-test. Note that no treatment was applied to any animals.
(§2) In case of tumor rechallenge of tumor-free mice after treatments, CT26 cells and 4T1 cells were individually sc injected into the different flanks of the same mouse, and the growth of each tumor was measured and graphed as described above. Naïve mice that received neither cancer cell injection nor drug treatment were included as controls. […] At the end of study on day 27, the mice in all treatment groups were intranasally administered luciferin and the lungs were resected and analysed for luciferase expression using IVIS instrument. Quantification of the luciferase activity in the lungs was achieved by software Living Image.

For another series, the system named is B16F10 melanoma tumors. Put plainly: B16F10 melanoma model, ER-886046 with anti-CTLA4. The class given is in vivo, mice. On the procedure: FIG. 8A to FIG. 8B. Synergistic anti-tumor activity of ER-886046 with anti-CTLA4 in B16F10 tumors. Panel shown in FIG. 8A) Anti-tumor growth activities of anti-CTLA4 and ER-886046 in B16F10 melanoma tumors growing in C57BL/6 mice. Panel shown in FIG. 8B) Animal body weight changes of the treatment groups. Anti-CTLA4 dosing: 200 μg for the first intravenous (iv) injection on day 3 after transplantation and 100 μg for the other three iv injections on days 6, 9 and 12 as indicated by the arrows. ER-886046 dosing: 150 mg/kg, po daily administration from day 3 to day 15 as indicated by the bars. *, p<0.05; **, p<0.01; ns, not significant; student t test.
Animal studies; In vitro cultured cancer cells were harvested and suspended in 100 μl of phosphate buffered saline at a cell concentration of 1.0×10^5 cells/ml and subcutaneously (sc) injected into the mice using a 26 g syringe on day 0. At the days post cell implantation as indicated in the figures, the mice were randomized based on the tumor size followed by treatments with radiation at 3 or 9 Gy dose per treatment, anti-PDL1 at 200 μg/mouse per intraperitoneal injection (ip), or anti-CTLA4 at 200 or 100 μg/mouse per ip injection with or without orally administration of ER-886046 at a dose of 150 mg/kg. The animals that were assigned to the treatment groups in individual study had close mean tumor weights in all groups. The tumor sizes were measured twice a week by a digital caliper (Mitutoyo Corp), and the volume was calculated using the formula (1×w^2)/2=mm^3, where 1 and w refer to the larger and smaller perpendicular dimensions collected at each measurement. Graphs of group tumor sizes (mean±SEM) and body weights (mean±SEM) versus time were plotted using software GraphPad Prism 6 (Lake Forest, Calif.). Student t-test and Gehan-Breslow-Wilcoxon test were used for statistical analysis.

The next series concerns CT26 tumors. Put plainly: CT26 tumor model, ER-886046 with anti-PDL1 or anti-PD1. The class given is in vivo, mice. On the procedure: FIG. 9A to FIG. 9B. […] Anti-PDL1 dosing: 200 μg per iv injection on days 9, 12, 15 and 18 post cell implantation as indicated by the arrows; […] Anti-PD1 dosing: 200 μg per iv injection on days 9, 12, 15, 18 and 21 post cell implantation as indicated by the arrows; […] Animal studies; In vitro cultured cancer cells were harvested and suspended in 100 μl of phosphate buffered saline at a cell concentration of 1.0×10^5 cells/ml and subcutaneously (sc) injected into the mice using a 26 g syringe on day 0. […] The animals that were assigned to the treatment groups in individual study had close mean tumor weights in all groups. […] Graphs of group tumor sizes (mean±SEM) and body weights (mean±SEM) versus time were plotted using software GraphPad Prism 6 (Lake Forest, Calif.). Student t-test and Gehan-Breslow-Wilcoxon test were used for statistical analysis.

In a further series the test system is 4T1 tumors. In words: Challenge of cured (tumor-free) mice with 4T1 cells. The class given is in vivo. The settings on record: mice cured by ER-886046 + radiation; vs control (naive) group.
Source text: as §1, §2

We go through one compound from US11707448B2, “Combination therapies for the treatment of cancer” (Eisai R&D Management Co., Ltd., priority 2014, dated 2023).

For the compound `C[C@H](NC(=O)c1c(C(F)F)nn(C)c1Oc1cccc(C(F)(F)F)c1)c1ccc(C(=O)O)cc1` [ER-886046], the “tumor growth after secondary CT26 challenge” value with CT26 cells (1.5 months after the first challenge) is “did not produce detectable tumor”. Moreover, the “tumor growth after CT26 challenge at another site” value with CT26 cells (monitored 1.5 months, no further treatment) is “did not grow tumors at all”. In addition, the “anti-tumor growth activity, combination” value in the series on B16F10 melanoma tumors (ER-886046 150 mg/kg po daily day 3-15 + anti-CTLA4 200/100 μg days 3, 6, 9, 12) is listed as “highly significant anti-tumor activity”. The animal body weight result with B16F10 melanoma tumors (ER-886046 + anti-CTLA4 combination) is listed as “No animal body weight loss”. Moreover, the “anti-tumor growth activity, single agent” value in the series on B16F10 melanoma tumors (alone, ER-886046 150 mg/kg po daily day 3-15, anti-CTLA4 200 μg day 3, 100 μg days 6, 9, 12) is “minimal activity”. In the series with CT26 tumors (ER-886046 150 mg/kg po daily day 9-19 + anti-PDL1 200 μg), the “anti-tumor activity compared to anti-PDL1 alone” value was “better anti-tumor activity”. Also, in the series on CT26 tumors (ER-886046 150 mg/kg po daily day 9-23 + anti-PD1 200 μg), the “anti-tumor activity compared to anti-PD1 alone” value was “better anti-tumor activity”. Besides, in the series on 4T1 tumors, the “growth of 4T1 tumors in cured mice” value was “no rejection of the tumor, but the growth rate was significantly reduced”.
